Source: patent publication US11806386B2, “Type I diabetes therapy” (St. Vincent's Institute of Medical Research, priority 2017, dated 2023)

Legend:
[1] = test system: diabetes in TIP2 mice; conditions: combination therapy: TIP2 mice expressing proinsulin plus 10 mg/kg twice daily oral from 12 to 14 weeks of age (cohort 3); p<0.005
Method: Mice were monitored for 30 weeks (210 days). […] Diabetes incidence curves compared using Log-Rank (Mantel-Cox) test.
Removal of doxycycline allowed the maximal recovery of proinsulin expression by 12 weeks (84 days) of age.
Mice receiving JAK inhibitor were treated with 10 mg/kg dose twice daily by oral gavage from 12 to 14 weeks (day 84-98) of age. Control mice received the same volume of vehicle by oral gavage.
Female mice were monitored for diabetes weekly by measurement of urinary glucose levels using Diastix (Bayer). Those suspected of hyperglycaemia had further blood glucose level testing on two consecutive days using ACCU-CHEK Advantage II strips (Roche). Mice with two consecutive blood glucose measurements of greater than or equal to 15 mM were considered diabetic.
TIP2 mice were administered doxycycline until 8 weeks of age to suppress proinsulin expression. At 12 weeks of age TIP2 mice received JAK inhibitor (combination therapy; cohort 3; FIG. 4A) or vehicle (proinsulin monotherapy; cohort 2).

[2] = test system: IGRP-specific CD8+ T cells
Method: IGRP was expressed in TII mice at 10-weeks of age. NOD mice were used as controls without antigen expression. At 13-weeks of age, mice were treated for 2 weeks with vehicle (Veh) or JAK inhibitor (JAKi). Mice were harvested for analysis immediately after treatment (2 week), or after a further 2 or 4 weeks with antigen alone (4 week and 6 week). The number of IGRP-specific CD8+ T cells in the peripheral lymphoid organs (PLO, top panel) or islets (bottom panel) is shown for each time point.
TII mice received doxycycline until 10-weeks of age. After doxycycline was removed, IGRP was expressed in antigen presenting cells of mice carrying both tetO-IGRP and IEα-tTA transgenes. Mice were treated with 10 mg/kg JAK inhibitor or vehicle between 13-15 w of age for 2 weeks. Mice were analysed at 2 weeks (harvest immediately after stopping JAK inhibitor), 4 weeks (harvest two weeks after stopping JAK inhibitor), and 6 weeks (harvest four weeks after stopping JAK inhibitor). Data is from 1-3 experiments per time point with 3-4 mice per group/experiment.
Cells were washed then stained with anti-PE MicroBeads (Miltenyi Biotec) and magnetically separated using an AutoMACSpro (Miltenyi Biotec).
Fluorescent-labelled monoclonal antibodies specific for CD4 (GK1.5) bound to APC-Cy7, CD8 (53-6.7) bound to FITC, CD3 (500A2) bound to AmCyan, CD44 (IM7) bound to Alexa Fluor 700, and CD11 b (M1/70), CD11c (N418) and Ly6G (RB6-8C5) bound to Pacific Blue were used to stain magnetically sorted cells. Analysis was performed using FACSFortessa (BD Bioscience) and FlowJo software (TreeStar). Single cells were gated on forward and side scatter, and dead cells excluded using propidium iodide. CD11 b^− CD11c^− Ly6G^− CD3^+ CD8^+ cells were gated as the target population for analysis of IGRP tetramer-positive T cells.

[3] = biological target: JAK2 (Homo sapiens, UniProt O60674); conditions: cited from earlier work
[4] = test system: other JAK-family kinases; conditions: cited from earlier work
[5] = test system: JAK/STAT signalling (p-STAT1); experiment: IFNγ-mediated STAT1 phosphorylation in peripheral blood stimulated ex vivo after oral dosing (Western blot); design: species or system NOD mice; conditions: 80 mg/kg daily oral gavage from 2 to 4 weeks of age; blood taken 2 h after last dose, 100 U/mL IFNγ ex vivo; p=0.01
Method: (A) NOD mice received 80 mg/kg ruxolitinib (n=5) or vehicle (n=5) daily by oral gavage from 2 to 4 weeks of age. Two hours after last dose of ruxolitinib or vehicle, peripheral blood was stimulated with 100 U/mL IFNγ ex vivo and analysed by Western blot for IFNγ-mediated phosphorylation of STAT1 and housekeeping protein β-actin. The intensity of p-STAT1 as a ratio of β-actin in arbitrary units (mean±SEM) was used to measure p-STAT1. p=0.01 using two-tailed unpaired t test.
The JAK1/JAK2 inhibitor ruxolitinib was purchased from Chemietek (USA). […] Mice receiving JAK inhibitor were treated with 80 mg/kg ruxolitinib daily by oral gavage from 2 to 4 weeks of age. Control mice received the same volume of vehicle by oral gavage.
Peripheral whole blood was stimulated with 100 U/mL IFN-γ (Biolegend) for 30 min at 37° C. […] Samples were further treated with radioimmunoprecipitation assay buffer (R0278, Sigma), sample buffer (10% SDS, 30% glycerol, 0.02% bromophenol blue in 250 mM Tris-HCl, pH 6.8) and β-mercaptoethanol. Near-infrared fluorescent western blotting was performed using anti-p-STAT1 antibody (BD Biosciences), normalized to β-actin (Santa Cruz Biotechnology) and scanned on an Odyssey CLx imager.
At 4 weeks of age, two hours after the last oral gavage of 80 mg/kg ruxolitinib or vehicle, peripheral blood and islets were harvested from NOD mice.

JAK2, sequence (O60674 whole entry, species assumed): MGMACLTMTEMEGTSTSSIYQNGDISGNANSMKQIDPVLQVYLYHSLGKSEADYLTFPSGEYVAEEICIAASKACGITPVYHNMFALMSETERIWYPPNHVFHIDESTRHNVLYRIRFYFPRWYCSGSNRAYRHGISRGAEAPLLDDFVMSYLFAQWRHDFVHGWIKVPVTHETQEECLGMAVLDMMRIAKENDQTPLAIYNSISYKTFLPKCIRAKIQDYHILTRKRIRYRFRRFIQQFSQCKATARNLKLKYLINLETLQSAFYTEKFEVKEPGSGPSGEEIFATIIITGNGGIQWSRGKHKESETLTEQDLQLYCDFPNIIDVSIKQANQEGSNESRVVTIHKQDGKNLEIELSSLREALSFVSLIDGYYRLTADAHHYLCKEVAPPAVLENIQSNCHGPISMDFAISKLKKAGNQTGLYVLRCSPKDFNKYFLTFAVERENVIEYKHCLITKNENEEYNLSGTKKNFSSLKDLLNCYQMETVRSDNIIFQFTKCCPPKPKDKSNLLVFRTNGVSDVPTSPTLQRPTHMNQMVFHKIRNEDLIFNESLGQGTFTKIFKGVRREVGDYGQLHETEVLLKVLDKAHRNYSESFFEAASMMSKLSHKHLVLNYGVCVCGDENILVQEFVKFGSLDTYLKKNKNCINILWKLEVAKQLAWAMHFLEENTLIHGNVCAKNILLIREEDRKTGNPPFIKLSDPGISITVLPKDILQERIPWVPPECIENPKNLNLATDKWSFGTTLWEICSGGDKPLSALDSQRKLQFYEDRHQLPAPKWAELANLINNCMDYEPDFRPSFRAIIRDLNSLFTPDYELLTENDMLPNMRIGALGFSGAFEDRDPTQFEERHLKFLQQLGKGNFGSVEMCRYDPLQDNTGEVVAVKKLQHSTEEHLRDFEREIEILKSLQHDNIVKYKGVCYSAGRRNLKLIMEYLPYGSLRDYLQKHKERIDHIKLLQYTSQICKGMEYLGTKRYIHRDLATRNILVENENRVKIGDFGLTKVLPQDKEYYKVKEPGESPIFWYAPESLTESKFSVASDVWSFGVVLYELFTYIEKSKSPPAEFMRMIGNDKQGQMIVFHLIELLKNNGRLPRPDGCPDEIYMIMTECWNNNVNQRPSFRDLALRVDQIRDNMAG

**Q.** Which results are given for CC(C)(C)c1nc2c3cc[nH]c(=O)c3c3cc(F)ccc3c2[nH]1 [JAK inhibitor]?
**A.** protection from diabetes at 30 weeks of age (210 days) [1]: significantly protected from diabetes; IGRP specific memory T cells 2 weeks after cessation of treatment ([2]; NOD mice without antigen expression (NOD-JAKi)): returned; IGRP specific memory T cells in PLO and in islets immediately after 2 weeks of treatment ([2]; TII mice expressing IGRP from 10 weeks, 10 mg/kg for 2 weeks, TII-Veh vs TII-JAKi): decrease; IGRP specific memory T cell numbers after cessation of treatment ([2]; TII mice with antigen expression (TII-JAKi), islets at 6 weeks p=0.02, PLO p=0.054): remained low

**Q.** What does the source list for C[C@H](Nc1cc(-c2cnn(C)c2)cc(Nc2cnccn2)n1)c1ccc(F)cc1 [NS018]?
**A.** IC50 [3]: < 1 nM; selectivity for JAK2 over other JAK-family kinases [4]: 30-50 fold

**Q.** For N#CC[C@H](C1CCCC1)n1cc(-c2ncnc3[nH]ccc23)cn1 [ruxolitinib], which “reduction of STAT1 phosphorylation compared to vehicle-treated NOD mice” value [5] is on record?
**A.** greater than 50%
